Assay results: US6900184B2, “Compositions containing pipercillin and tazobactam useful for injection” (Wyeth Holdings Corporation, priority 2003, dated 2005)

Experiment: Light obscuration particulate testing (HIAC-3000, based on USP 788), at time zero and 24 hours
Type: physicochemical
Conditions: in Zosyn solutions, summary of Table 1
Description: Samples are prepared according to the compositions described in Table I. […] The fluid in the bag is mixed with gentle inversions for about 30 seconds. • The bags are labeled with identity and reconstitution time. • When added, aminoglycosides are added immediately. The fluid in the bag is mixed with gentle inversions for about 30 seconds. • A 50 ml sample is drawn with a 60 cc syringe fitted with a 21-gauge needle. • A clean, particle free vial is rinsed with water for injection, and then filled with about 45 ml of the sample. HIAC testing is performed immediately. • Into a suitably sized sample vial, a 3 ml sample is prepared for HPLC testing. HPLC testing is begun within an hour of sample preparation (Table 1). The remainder of the Zosyn® admixture samples (about 50 ml) are stored in a closed cabinet in the laboratory, at ambient temperature and tested again 24 hours later (Table 1). Light obscuration testing is performed using a HIAC-3000. A testing method, based on USP 788 is followed for the analysis. (See TABLE I) The data is reported on a particle per ml basis. […] The same sample was resampled and analyzed 24 hours after the first test. A summary of the HIAC data is provided as Table I.

SMILES | effect of added EDTA (edetate disodium dihydrate) on number of particles generated | effect of added aminoglycoside on number of particles generated
O=C(O)CN(CCN(CC(=O)O)CC(=O)O)CC(=O)O [EDTA, ethylene diamine tetraacetic acid] | significantly reduces the number of particles generated in 24 hours | –
NCC[C@H](O)C(=O)N[C@@H]1C[C@H](N)[C@@H](O[C@H]2O[C@H](CN)[C@@H](O)[C@H](O)[C@H]2O)[C@H](O)[C@H]1O[C@H]1O[C@H](CO)[C@@H](O)[C@H](N)[C@H]1O [amikacin] | – | increases the number of particles generated in 24 hours
